PubChem BioAssay (NCI)
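In this assay, cells in 96-well plates receive the compound at five concentrations for 48 hours. Endpoints are linearly interpolated between the surrounding concentrations. GI50: concentration for 50% inhibition of growth. TGI: concentration producing complete growth inhibition.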

Key:
Experiment in all cases: inhibition of tumour cell growth, NCI panel, 48 h
SK-MEL-5 melanoma = tested on: SK-MEL-5 melanoma
SK-MEL-28 melanoma = tested on: SK-MEL-28 melanoma
CAKI-1 renal = tested on: CAKI-1 renal
U251 CNS = tested on: U251 CNS
EKVX NSCLC = tested on: EKVX NSCLC
RPMI-8226 leukemia = tested on: RPMI-8226 leukemia
NCI-H460 lung = tested on: NCI-H460 lung
MOLT-4 leukemia = tested on: MOLT-4 leukemia
DU-145 prostate = tested on: DU-145 prostate
SNB-19 CNS = tested on: SNB-19 CNS

Compound | TGI (SK-MEL-5 melanoma) [µM] | TGI (SK-MEL-28 melanoma) [µM] | TGI (CAKI-1 renal) [µM] | TGI (U251 CNS) [µM] | TGI (EKVX NSCLC) [µM] | TGI (RPMI-8226 leukemia) [µM] | TGI (NCI-H460 lung) [µM] | GI50 (SK-MEL-5 melanoma) [µM] | GI50 (MOLT-4 leukemia) [µM] | TGI (MOLT-4 leukemia) [µM] | GI50 (SK-MEL-28 melanoma) [µM] | GI50 (CAKI-1 renal) [µM] | GI50 (U251 CNS) [µM] | GI50 (DU-145 prostate) [µM] | TGI (DU-145 prostate) [µM] | GI50 (SNB-19 CNS) [µM] | TGI (SNB-19 CNS) [µM] | GI50 (RPMI-8226 leukemia) [µM] | GI50 (NCI-H460 lung) [µM] | GI50 (EKVX NSCLC) [µM]
Cc1ccc(C2=NO[C@@H]3C(=O)N(c4ccc(Cc5ccc(N6C(=O)[C@H]7C(c8ccc(C)cc8)=NO[C@H]7C6=O)cc5)cc4)C(=O)[C@H]23)cc1 | > 100 | > 100 | > 100 | > 100 | > 100 | > 100 | > 100 |  |  |  |  |  |  |  |  |  |  |  |  | 
Cn1cc(C2=C(c3c4n(c5ccccc35)CCC(CN)CC4)C(=O)NC2=O)c2ccccc21 (stereo not given) | 7.59 | 8.06 | 10.7 | 7.21 |  | 10.8 | 8.19 | 3.99 | 5.27 | 13.3 | 4.17 | 4.75 | 3.74 | 4.55 | 8.21 | 4.52 | 10.7 | 4.41 | 4.21 | 
COc1ccc(Nc2ccnc(NCCCNc3ccnc4cc(Cl)ccc34)n2)cc1 | 1.46 | 1.66 | 2.41 | 1.89 |  | 3.23 | 2.85 | 0.387 | 1.45 | 7.22 | 0.434 | 1.15 | 0.59 | 2.6 | 10.7 | 2.61 | 10.1 | 0.891 | 1.27 | 
COc1cc(C(=O)n2nc(N3CCN(C)CC3)c3cc(N)ccc32)cc(OC)c1OC | 9.06 | 99.4 | > 100 | 25.8 |  | 34.8 | > 100 | 3.03 | 3.78 | 43.9 | 14 | 4.52 | 3.65 | 3.99 | > 100 | 4.75 | > 100 | 4.79 | 4.34 | 
O=C1c2ccccc2C(=O)c2nc(-c3ccccc3)c(-c3ccccc3)nc21 | 8.2 | > 100 | > 100 | > 100 | > 100 | > 100 | > 100 |  |  | > 100 |  |  |  |  |  |  | > 100 |  |  | 
Cn1c2cccc3nnc4cccc(c4c32)n1C | > 100 | > 100 | > 100 | > 100 | > 100 | > 100 | > 100 |  |  | > 100 |  |  |  |  |  |  | > 100 |  |  | 
COC(=O)C1C(=O)O[C@@H](c2ccc(OC)cc2OC)C1C(=O)OC (stereo not given in full) | > 100 | > 100 | > 100 | > 100 | > 100 | > 100 | > 100 |  |  | > 100 |  |  |  |  |  |  | > 100 |  |  | 
O=C(CC(=O)C(F)(F)F)c1csc2ccccc12 | > 100 | > 100 |  | > 100 | > 100 | 91.6 | > 100 |  |  | 72.3 |  |  |  |  |  |  | > 100 |  |  | 
O=C(C=Nc1ccccc1C(=O)[O-])c1cccs1.O=C(C=Nc1ccccc1C(=O)[O-])c1cccs1.[Cu+2] |  | > 100 | > 100 | > 100 |  |  | > 100 |  |  | > 100 |  |  |  |  |  |  | > 100 |  |  | 
CC(=O)Nc1ccc(/C=C/C(=O)c2sc(C(N)=S)nc2C)cc1 | > 100 | > 100 | > 100 | > 100 | > 100 | > 100 | > 100 |  |  | > 100 |  |  |  |  |  |  |  |  |  | 
Cc1ccc2sc3c(NCCCNCCO)nc4ccccc4c3c(=O)c2c1 | 3.25 | 3.36 | 2.82 | 3.18 | 3.08 | 3.38 | 3.24 | 1.78 | 1.81 | 3.55 | 1.8 | 1.43 | 1.6 | 1.71 | 3.15 |  |  | 1.57 | 1.7 | 1.61
CC1OC(O)CC(OC(=O)c2ccccc2)C1OC(=O)c1ccccc1 (stereo not given) | 31.4 | 29.6 | 63.1 | > 100 |  | 31.8 | > 100 |  |  | 39 |  |  |  |  |  |  | > 100 |  |  | 
CCOC(=O)c1c(Cl)c2c(n1Cc1cc(OC)cc(OC)c1)-c1oncc1CCC2 | > 100 | > 100 | > 60.7 | > 100 |  | > 100 | > 100 | 0.451 | 0.512 | > 100 | 0.554 | 0.29 | 0.351 | 0.35 | 97.7 | 0.629 | > 100 | 0.383 | 0.375 | 
COc1ccccc1NC(=O)C1=C(C)NC(C)=C(C(=O)Nc2ccccc2OC)C1c1ccccc1OC | > 100 | > 100 | > 100 | > 100 | > 100 | > 100 | > 100 |  |  | > 100 |  |  |  |  |  |  | > 100 |  |  | 
CCN(CC)CCOc1cc2c(C(=O)OC)c(C)oc2cc1C(C)=O | 19 |  | 31.2 | 10.7 | 22.1 | 7.39 | 91.8 | 6.62 | 3.02 | 7.5 |  | 14.2 | 2.75 |  |  | 15.8 | 32.2 | 2.76 | 29.9 | 8.75
NC(=S)N/N=C(/C(=O)Nc1nc2ccc([N+](=O)[O-])cc2s1)C1C(=O)NC(=S)NC1=O |  | > 100 | > 100 | > 100 |  | > 100 | > 100 |  |  | > 100 |  |  |  |  | > 100 |  | > 100 |  |  | 
O=S1c2ccc(Cl)cc2CC(SSC2Cc3cc(Cl)ccc3S(=O)c3ccccc32)c2ccccc21 (stereo not given) | > 100 | > 100 | > 100 | > 100 | > 100 | > 100 | > 100 |  |  | > 100 |  |  |  |  |  |  | > 100 |  |  | 
COC(=O)C1=CC2OC13CC1CCC3(C2=O)C1(C)C (stereo not given) | 30.7 |  | 7.37 | 25.6 |  | 38.6 | > 100 |  |  | 33.7 |  |  |  |  |  |  | 52.3 |  |  | 
COC(=O)C1=CC2OC1(C)C1(CC1)C2=O (stereo not given) |  |  | 33.5 | > 100 | 29 | 30.3 | 48.4 |  |  | 27.2 |  |  |  |  |  |  | > 100 |  |  | 
